The text below walks through data of ChEMBL document CHEMBL1255282, “Escherichia coli isolate coproducing 16S rRNA Methylase and CTX-M-type extended-spectrum beta-lactamase isolated from an outpatient in the United States” (2008).

In brackets after ≈: the same amount, converted by molar mass. Activity calls are given as the source filed them.

What all share (assay type): functional
Test [1] relates to Escherichia coli. As to the kind of experiment: Antibacterial activity against 16S rRNA methylase RmtB and CTX-M-65 ESBL producing Escherichia coli isolate ECRB1 by Etest.
Test [2] relates to Escherichia coli. As to the kind of experiment: Antibacterial activity against 16S rRNA methylase rmtB and CTX-M-65 ESBL producing rifampin resistant Escherichia coli isolate ECRB1 by Etest.
For test [3], the system named is Escherichia coli. The test can be described thus: Antibacterial activity against 16S rRNA methylase RmtB and CTX-M-65 ESBL producing Escherichia coli DH10B by Etest.
Test [4] concerns Escherichia coli. As to the kind of experiment: Antibacterial activity against Escherichia coli DH10B harboring pBCSK expressing rmtB gene by Etest.

As usually defined, the MIC is the smallest concentration in the dilution series that meets the test's criterion for growth inhibition. Higher therefore signals weaker potency. `CO/N=C(\C(=O)N[C@@H]1C(=O)N2C(C(=O)O)=C(COC(C)=O)CS[C@H]12)c1csc(N)n1` [CEFOTAXIME]: the results for the MIC against Escherichia coli [1], against Escherichia coli [2] and against Escherichia coli [3] were 64 µg/mL (≈ 141 µM), 96 µg/mL (≈ 211 µM) and 96 µg/mL (≈ 211 µM), respectively.
For `NCC[C@H](O)C(=O)N[C@@H]1C[C@H](N)[C@@H](O[C@H]2O[C@H](CN)[C@@H](O)[C@H](O)[C@H]2O)[C@H](O)[C@H]1O[C@H]1O[C@H](CO)[C@@H](O)[C@H](N)[C@H]1O` [AMIKACIN], the MIC against Escherichia coli [1] was above 256 µg/mL; with Escherichia coli [4] it was above 256 µg/mL; against Escherichia coli [2], at least 128 µg/mL; with Escherichia coli [3] it was at least 128 µg/mL.
As to `O=C(O)c1cn(C2CC2)c2cc(N3CCNCC3)c(F)cc2c1=O`, the result in the test on Escherichia coli [1] was Active.
As to GENTAMICIN, the MIC against Escherichia coli [1] is above 256 µg/mL; against Escherichia coli [4], above 256 µg/mL; against Escherichia coli [2], above 128 µg/mL; in the test with Escherichia coli [3], above 128 µg/mL.
For the compound `NC[C@H]1O[C@H](O[C@H]2[C@H](O)[C@@H](O[C@H]3O[C@H](CO)[C@@H](O)[C@H](N)[C@H]3O)[C@H](N)C[C@@H]2N)[C@H](N)C[C@@H]1O` [TOBRAMYCIN], the MIC is above 256 µg/mL in the test on Escherichia coli [1], above 256 µg/mL in the test on Escherichia coli [4], at least 128 µg/mL in the test with Escherichia coli [2] and at least 128 µg/mL against Escherichia coli [3].
